From a melting point compilation (Tetko et al.; mined from patent text by program, amines drawn as free bases though some values may be those of a salt) come the findings set out here.

Where only a bound is given, the exact number is not on record here.

With `CC(C)=CC(=O)Nc1c(C(O)(C(F)(F)F)C(F)(F)F)ccc2ccccc12`, the melting point (usually the temperature, or range, at which the solid turns liquid) fell in the range of 135 to 137 °C.

Take `O=c1[nH]c2cc(Cl)c(Cl)cc2[n+]([O-])c1-c1ccccc1O`: the melting point was 266 to 268 °C.

As for `O=C1OCC2(CC2)N1c1nc(-c2ccc(Br)cc2)cs1`, the melting point lay within 201 to 202 °C.

With `Cc1cc2c(cc1C)n(C1CCNCC1)c(=O)n2C`, the melting point was 171 to 172 °C.

For `O=C(O)Cc1c(C(=O)c2ccncc2)[nH]c2cc(Cl)ccc12`, the melting point is 256 to 257 °C.

As to `NS(=O)(=O)c1cc2c(s1)CNCC2`, the melting point was 172 to 175 °C.

`CC(C)CNC(=O)c1ccc(C2(F)CC2c2ccc(Cl)cc2)cc1` (stereo not drawn): the melting point is 140 °C.

The compound `CSC1=Nc2ccccc2Cc2nccn21` gave a melting point of 200 to 201 °C.

On to `CCn1c(=O)n(CCCCC(C)=O)c(=O)c2cnn(C)c21`, for which the melting point worked out at 112 °C.

As to `CCOC(=O)Cc1c2cc(F)ccc2n2c(-c3ccc(S(C)=O)cc3)nccc12` (stereo not drawn), the melting point is 133 to 135 °C.

In turn, `COC(=O)c1ccc(CNS(C)(=O)=O)cc1S(N)(=O)=O` returned a melting point of 185 to 187 °C.

`N#CCC(=O)c1ccccc1C1(c2ccccc2)OCC(CCl)O1` (stereo not drawn) came in with a melting point of 107 to 110 °C.

For `CCCn1c(COCC)nc2c(N)nc3ccc(OCCCN4CCCC4=O)cc3c21`, the melting point was 188 to 190 °C.

`COc1ccc(N2CCN(c3c(C)c(C)c4c(c3C)C(c3ccc(C)cc3)C(C)(C)O4)CC2)cc1OC` (stereo not drawn) showed a melting point of 136 to 139 °C.

`CCCCCCCCOc1ccc(-c2ccc(CCl)cc2)cc1` registered a melting point of 101 °C.

Turning to `COc1cc2ncnc(N3CCCN(C(=O)Nc4ccc([N+](=O)[O-])cc4)CC3)c2cc1OC`, the melting point was in the range of 243 to 244 °C.

`Cc1c([N+](=O)[O-])c(=O)n(C)c(=O)n1C` displayed a melting point of 152 °C.

As for `CC(=O)Nc1ccc(C(=O)c2cc(-c3ccncc3)c(N3CCOCC3)s2)cc1`, the melting point came out at 139 °C.

As for `O=c1c2c[nH]cc(-c3ccccc3)c-2nn1-c1ccccc1`, the melting point is 280 to 285 °C.

In turn, `O=C(Nc1cccc(Cl)c1)N1CCc2cc(S(=O)(=O)N3CCN(c4cccc(Cl)c4)CC3)ccc21` registered a melting point of 190 °C.

`CCOC(=O)C1=Cc2cc(Cl)cc(C=NO)c2OC1C(F)(F)F` (stereo not drawn) registered a melting point of 187 to 188 °C.

With `Cn1c(C(F)(F)F)ccc(-c2cc(NS(C)(=O)=O)c(Cl)cc2F)c1=O`, the melting point lay in the range of 113 to 114 °C.

Compound `CCN(CCCc1coc2c(OC)cccc12)C1COc2c(F)ccc(C(N)=O)c2C1` (stereo not drawn) showed a melting point of 125 to 128 °C.

The compound `N#Cc1cccc(NC(=O)NCc2cccc3c2CN(C2CCC(=O)NC2=O)C3=O)c1` (stereo not drawn) had a melting point of 330 to 333 °C.

`COc1c(Nc2ncc3ccc(-c4ccccc4N(C)S(C)(=O)=O)n3n2)cccc1C1CCN(C)CC1` had a melting point of 92 to 101 °C.

In the case of `CN(N=Cc1ccco1)C(=O)c1[nH]c2ccccc2c1-c1ccccc1`, the melting point lay in the range of 196 to 199 °C.

In turn, `CCC1CC(=O)N(Cc2ccc(NC(=O)C(C)(C)C)cc2)N=C1c1ccc(OC)c(OC)c1` (stereo not drawn) yielded a melting point of 117 °C.

In the case of `CC(C)n1c(=O)nc(-c2ccc3c(c2)OCCO3)c2cc3c(cc21)OCO3`, the melting point lay within 214 to 217 °C.

For the compound `O=c1cc(-c2ccccc2)sc(N2CCOCC2)c1`, the melting point is 160 to 161 °C.

Take `CC(=O)c1cc(C(=O)OCc2ccco2)c(C2=NC(C)(C(C)C)C(=O)N2)nc1C` (stereo not drawn): the melting point fell in the range of 133 to 136 °C.

Compound `CC(C)(O)c1cnn2c(-c3cccc(-c4ccccc4C#N)c3)cnc2n1` registered a melting point of 166 °C.

As for `O=C(O)C=C1c2ccccc2CCc2cc(Cl)ccc21`, the melting point lay in the range of 155 to 175 °C.

`COc1ccc(OCC(O)COc2cccc(O)c2C(C)=O)cc1` (stereo not drawn) came in with a melting point of 100 to 102 °C.

In the case of `CCCN1CCC(O)(c2cc(F)cc(F)c2)C1` (stereo not drawn), the melting point fell in the range of 117 to 118 °C.

The compound `CC(C)(C)C1OC1C(O)c1ccc(F)cc1` (stereo not drawn) came in with a melting point of 56 to 59 °C.

As for `O=[N+]([O-])c1cc(Br)ccc1Cl`, the melting point lay within 65 to 67 °C.

Compound `Cc1ccc(CN(c2ccccc2CC(=O)O)c2c(Cl)cccc2Cl)cc1` gave a melting point of 154 to 158 °C.

Consider `Nc1ccc2nccnc2c1Br`, for which the melting point was 155 to 156 °C.

Regarding `COc1cc(F)ccc1C(=O)NCCN1CCC(O)(c2ccc(Cl)cc2)CC1`, the melting point stood at 157 °C.

Compound `CC(C)(C)OC(=O)Nc1cc(N2CCC(O)CC2)c(I)cc1[N+](=O)[O-]` registered a melting point of 58 to 60 °C.

The compound `CC1CCCC(C)N1C(=O)C=Cc1ccc(C(F)(F)F)cc1` (stereo not drawn) came in with a melting point of 89 to 91 °C.

In turn, `CCCn1cc(Cc2ccc(C(=O)OC)cc2OC)c2cc(C=O)ccc21` gave a melting point of 99 to 100 °C.

In the case of `Cc1cc2c(cc1C)=NC(=O)N=2`, the melting point was above 360 °C.

Consider `CCOC(=O)c1ccc(CNC(N)=O)cc1`, for which the melting point was 173 to 175 °C.

`c1csc(-c2nc(COc3ccc(CCCn4ccnc4)cn3)co2)c1`: the melting point lay within 86 to 87 °C.

As for `O=C1CC(c2ccc(F)cc2)Cc2occ(C(F)(F)F)c21` (stereo not drawn), the melting point was in the range of 105 to 106 °C.

Compound `COc1cc2cc(C(N)=O)cnc2cc1F` displayed a melting point of 231 °C.

In turn, `COc1cc2c(cc1OC)C(Oc1ccccc1C#N)CN(C)C2` (stereo not drawn) yielded a melting point of 147 to 148 °C.

In turn, `Nc1cc(Br)ccc1-c1ccccc1F` came in with a melting point of 40 to 42 °C.

As to `CCOC(=O)C(C#N)(CCBr)c1cc(OC)c(OC)c(OC)c1` (stereo not drawn), the melting point fell in the range of 76 to 77 °C.

The compound `Cc1cc(-c2cc3cc(OCCNC[C@H](O)c4cccc(Cl)c4)ccc3o2)no1` had a melting point of 108 to 110 °C.

With `COCOc1ccc(N2C(=O)[C@@H](N=[N+]=[N-])[C@H]2C=Cc2ccccc2)cc1` (relative stereo), the melting point was in the range of 111 to 112 °C.

The compound `Cc1cccc2ncn(C(C)C(O)(Cn3cncn3)c3ccc(F)cc3F)c(=O)c12` (stereo not drawn) registered a melting point of 87 to 89 °C.

For `COc1ccc(N2CCN(c3c(C)c(C)c4c(c3C)CC(C)(CNC(C)=O)O4)CC2)cc1` (stereo not drawn), the melting point was in the range of 146 to 152 °C.

As for `CSC(=N[N+](=O)[O-])NC(C)=O`, the melting point fell in the range of 109 to 110 °C.

`CSC(=S)OCc1cn(-c2ccc(N3CCOCC3)c(F)c2)nn1`: the melting point was 118 °C.

Regarding `Fc1ccc(Nc2nc(NCc3ccc(Cl)nc3)nc(NN=Cc3ccc(OC(F)(F)F)cc3)n2)cc1C(F)(F)F`, the melting point was in the range of 117 to 125 °C.

Regarding `O=CC[C@@H](O)[C@H](O)[C@H](O)CO`, the melting point lay within 146 to 149 °C.

In turn, `CCN1C(=O)C(=O)N(c2c(C)cccc2C)C1=S` gave a melting point of 103 to 105 °C.

For `O=C(NC1CC1)c1cccc(-c2cccc3oc(Cc4cccc(C(F)(F)F)c4)cc23)c1`, the melting point was in the range of 120 to 121 °C.

For the compound `Cc1nc2sc(Br)cc2c(=O)n1-c1ccccc1Cl`, the melting point lay in the range of 164 to 166 °C.

As to `CC(=NOCCOc1ccc(CC2SC(=O)N(C(c3ccccc3)(c3ccccc3)c3ccccc3)C2=O)cc1)c1ccc(-c2ccccc2)nc1` (stereo not drawn), the melting point fell in the range of 186 to 187 °C.

`CCCn1c(-c2ccccc2)nc2cc(C(=O)O)ccc21` came in with a melting point of 223 °C.

`C=C(C)CC(OS(C)(=O)=O)C(Cl)(Cl)Cl` (stereo not drawn) returned a melting point of 60 to 61 °C.

The compound `COC(=O)c1cc(S(=O)(=O)N(C)C)c(F)c(F)c1Nc1ccc(I)cc1Cl` yielded a melting point of 154 to 156 °C.

Regarding `C[C@H]1CC[C@H]2C(C)(C)[C@@H](O)CC[C@]23Oc2c(c(O)cc4c2CN(S(=O)(=O)c2ccccc2)C4)C[C@]13C`, the melting point lay within 150 to 153 °C.

For the compound `CCc1c(Oc2cc(C)cc(C)c2)n(CC2CC=CC2)c(=O)[nH]c1=O`, the melting point was 179 to 180 °C.

Take `Cc1oncc1C(=O)Nc1ccc(-n2nc(C(F)(F)F)cc2C(F)(F)F)cc1`: the melting point is 163 to 167 °C.

Regarding `CCCCCCCCc1cc2c(cc1CCCCCCCC)c1ccsc1c1sccc21`, the melting point was in the range of 62.2 to 63.1 °C.

Consider `Fc1ccc2c(c1)OCc1c(-c3nc(C4CCCC4)no3)ncn1-2`, for which the melting point lay within 134 to 135 °C.

As to `CC(C)N(CCC(CCN(C)C)(C(N)=O)c1ccccc1)C(C)C` (stereo not drawn), the melting point is 75 to 78 °C.

Compound `O=C(CCC(=O)N1CCCCC1)c1ccc(F)cc1` showed a melting point of 70 to 71 °C.

For `Cc1cc2c(s1)CCCC1CC(=O)N(c3ccccc3)N=C21` (stereo not drawn), the melting point lay in the range of 102 to 103 °C.

The compound `CCCCOc1cc2c(Nc3cc(OC)c(Cl)cc3Cl)c(C#N)cnc2cc1OCCOC` gave a melting point of 166 to 167 °C.

In turn, `CNC(=O)c1cccc(Nc2ncnc3[nH]cc(C(=O)c4cccc(F)c4)c23)c1` registered a melting point above 300 °C.

`CCOC(=O)c1c(O)c2cc(C)ccc2n(Cc2ccc(F)cc2)c1=O`: the melting point is 130 °C.

Compound `Cc1c(C)c2c(c(C)c1NC(=O)CCC(F)(F)F)C(c1ccc(C(C)C)cc1)CO2` (stereo not drawn) had a melting point of 206 to 207 °C.

With `O=C1NCCc2c(-c3cccc(CCO)c3)[nH]c3cccc1c23`, the melting point turned out to be 188 °C.

With `Cc1ccc2c(c1)CCC2=NNC(=N)N`, the melting point was above 275 °C.

`CCCc1nc(C#N)c(N)n1CC(C)C`: the melting point was 135 to 136 °C.

With `CC12CCC(=O)C=C1CC(O)C1C2CCC2(C)C(O)CCC12` (stereo not drawn), the melting point was 191 to 193 °C.

With `CC(C)N1CCN(Cc2ccc(NC(=O)c3cccc4cc(Oc5cc(N)ncn5)ccc34)cc2C(F)(F)F)CC1`, the melting point lay in the range of 185 to 189 °C.

Consider `O=C(CCC1CCNCC1)c1ccc2c(c1)NCCCC2`, for which the melting point was 104 to 107 °C.

Consider `O=C1c2ccccc2CCC1Cc1ccccc1` (stereo not drawn), for which the melting point was in the range of 50 to 51 °C.

In the case of `Cc1nc(-c2c(F)cccc2Cl)nn1-c1ccc(COc2ncc(C(F)(F)F)cc2Cl)cc1`, the melting point was 96 to 97 °C.

`[N-]=[N+]=Nc1nc(N=[N+]=[N-])nc(-c2ccccc2)n1` gave a melting point of 130 to 132 °C.

With `CCOC(=S)CC/C(C)=C/Cc1c(OC)c(C)c2c(c1OC(C)=O)C(=O)OC2`, the melting point lay in the range of 81 to 84 °C.

In the case of `CC(C)(C)C(O)C(C(Sc1ccccc1)c1ccc(F)cc1)n1cncn1` (stereo not drawn), the melting point is 171 °C.
